Assay results as given in ChEMBL document CHEMBL1649345, “Strychnan and secoangustilobine A type alkaloids from Alstonia spatulata. Revision of the C-20 configuration of scholaricine” (J Nat Prod, 2010).
In brackets after ≈: the same amount, converted by molar mass.

Legend:
Type in all cases: functional, cell-based
[1] = Cytotoxicity against human vincristine-resistant KB/VJ300 cells
[2] = Cytotoxicity against human vincristine-resistant KB/VJ300 cells in presence of vincristine
[3] = Cytotoxicity against human vincristine-sensitive KB/S cells

SMILES: COC(=O)C1=C2Nc3ccccc3[C@@]23CCN2C[C@H]([C@@H](C)O)[C@@H]1C[C@H]23
- IC50 [1]: > 25 µg/mL
- IC50 [2]: 5.12 µg/mL
- IC50 [3]: > 25 µg/mL

SMILES: COC(=O)C1=C2Nc3ccccc3[C@@]23CCN2C[C@H]([C@H](C)O)[C@@H]1C[C@H]23
- IC50 [1]: > 25 µg/mL
- IC50 [2]: 8.35 µg/mL
- IC50 [3]: > 25 µg/mL

SMILES: COC(=O)C1=C2Nc3c(OC)cccc3[C@@]23CCN2C[C@H]([C@@H](C)O)[C@@H]1C[C@H]23
- IC50 [1]: > 25 µg/mL
- IC50 [2]: 10.6 µg/mL
- IC50 [3]: > 25 µg/mL

SMILES: C=C[C@@]12CNCC[C@@H]1[C@](C(=O)OC)(c1cc3ccccc3[nH]1)CO2
- IC50 [1]: > 25 µg/mL
- IC50 [2]: > 25 µg/mL
- IC50 [3]: > 25 µg/mL

SMILES: C/C=C1/CN2CC[C@]34C(=C(C(=O)OC)[C@H]1C[C@H]23)Nc1ccccc14 [AKUAMMICINE]
- IC50 [1]: > 25 µg/mL
- IC50 [2]: 12.3 µg/mL
- IC50 [3]: > 25 µg/mL

SMILES: C=C[C@@]12CN(C(=O)OCC)CC[C@@H]1[C@](C(=O)OC)(c1cc3ccccc3[nH]1)CO2 [ALSTOLOBINE A]
- IC50 [1]: > 25 µg/mL
- IC50 [2]: 3.51 µg/mL
- IC50 [3]: > 25 µg/mL

SMILES: CCOC(=O)O[C@H](C)[C@H]1CN2CC[C@]34C(=C(C(=O)OC)[C@H]1C[C@H]23)Nc1ccccc14 [ALSTOLUCINE A]
- IC50 [1]: > 25 µg/mL
- IC50 [2]: 0.59 µg/mL
- IC50 [3]: > 25 µg/mL

SMILES: COC(=O)C1=C2Nc3ccccc3[C@@]23CCN2C[C@@H](C(C)=O)[C@@H]1C[C@H]23 [ALSTOLUCINE B]
- IC50 [1]: > 25 µg/mL
- IC50 [2]: 0.64 µg/mL
- IC50 [3]: > 25 µg/mL

SMILES: COC(=O)C1=C2Nc3ccccc3[C@@]23CC[N+]2([O-])C[C@@H](C(C)=O)[C@@H]1C[C@@H]32 (some centres not stated) [ALSTOLUCINE C]
- IC50 [1]: > 25 µg/mL
- IC50 [2]: > 25 µg/mL
- IC50 [3]: > 25 µg/mL

SMILES: COC(=O)C1=C2Nc3c(O)cccc3[C@@]23CCN2C[C@@H](C(C)=O)[C@@H]1C[C@H]23 [ALSTOLUCINE D]
- IC50 [1]: > 25 µg/mL
- IC50 [2]: 10.3 µg/mL
- IC50 [3]: > 25 µg/mL

SMILES: COC(=O)C1=C2Nc3c(O)cccc3[C@@]23CCN2C[C@H](C(C)=O)[C@@H]1C[C@H]23 [ALSTOLUCINE E]
- IC50 [1]: > 25 µg/mL
- IC50 [2]: 19.2 µg/mL
- IC50 [3]: > 25 µg/mL

SMILES: COC(=O)C1=C2Nc3ccccc3[C@@]23CCN2C[C@H](C(C)=O)[C@@H]1C[C@H]23 [ALSTOLUCINE F]
- IC50 [1]: > 25 µg/mL
- IC50 [2]: 2.61 µg/mL
- IC50 [3]: > 25 µg/mL

SMILES: COC(=O)C1=C2Nc3c(O)cccc3[C@@]23CCN2C[C@@H]([C@H](C)O)[C@@H]1C[C@H]23 [SCHOLARICINE]
- IC50 [1]: 13.3 µg/mL (≈ 37.5 µM)
- IC50 [2]: 1.15 µg/mL
- IC50 [3]: > 25 µg/mL

SMILES: C/C=C1/CN2CC[C@]34C(=C(C(=O)O)[C@H]1C[C@H]23)Nc1ccccc14 [VINERVINE]
- IC50 [1]: > 25 µg/mL
- IC50 [2]: 12.1 µg/mL
- IC50 [3]: > 25 µg/mL
